Data on 20 compounds can be found in patent US6037333A, “Microbe-inhibiting compositions” (Trustees of Tufts College, priority 1998, dated 2000).

Assay [1] deals with Acanthamoeba. Kind of assay: Acanthamoeba-induced cytopathic effect (CPE) assay, immortalized corneal epithelial cultures. It counts as cell-based. The note with it: for Inhibition of amoeba-induced CPE: no concentration stated; for inhibition at 310 µM: at 0.31 mM; for inhibition at 50000 µM: at 50 mM. The procedure: Corneal epithelial cells with extended life span were also produced.
(§1) To characterize the role of carbohydrate-mediated host-parasite interactions in the Acanthamoeba-induced cytotoxicity of host cells, in vitro cytopathic assays were performed using both primary and immortalized cultures of corneal epithelium as host cells. Immortalized cells were assayed as confluent cultures in 24-well plates, and primary cells were assayed as confluent cells in 35-mm dishes or 6-well plates.
(§2) The plates were incubated at 37° C. in a CO2 incubator and periodically examined under a phase-contrast microscope for the presence of cell-free plaques in the monolayer for up to 28-30 hours. Control wells contained host cells without the parasites. At the end of the incubation period, the cultures were stained with Giemsa (Diff-Quik, Dade Diagnostic Inc., Aguada, PR). Approximate cell density in each well was estimated by scanning the stained plates in a calibrated, computer-assisted Bio-Image Scanner (Millipore, Ann Arbor, Mich.). Cytopathic effect (CPE) was expressed as percentage of the optical density by the following formula: [formula]
The CPE assays were performed in the SFB media containing one or more saccharides to be tested.
After staining with Giemsa, percent cell loss in each well was calculated based on the optical density in each well.
For orientation: Damage to the host cells serves as the signal in cytopathic effect assays.

The target in assay [2] is mannose binding protein (MBP) of Acanthamoeba (Acanthamoeba castellanii, UniProt Q6J288). The experiment in a line: Solid-phase assay of 35S-labeled Acanthamoeba binding to Man-BSA coated wells. Set-up: species or system Acanthamoeba strain MEEI 0184 (A. castellani). As to conditions: for Inhibition of Acanthamoeba binding to Man-BSA: at 100 mM; for Inhibition of amoebic binding to Man-BSA / affinity of amoebic lectin: no concentration stated. The text has this: The Acanthamoeba strain MEEI 0184 (A. castellani based on morphological characteristics) was derived from an infected human cornea and used throughout this study. ATCC strain 30868 should have similar properties. The parasites were axenically cultured in PYG medium. A solid-phase assay characterized the sugar binding properties of the mannose binding protein (MBP) of Acanthamoeba (Z. Yang et al., Infect. Immun. 65:439-445, 1997). Briefly, wells of microtiter plates were coated with bovine serum albumin-α-D-mannopyranosyl phenylisothiocyanate (Man-BSA, 15-25 moles of α-D-mannopyranoside/mole albumin, 0.03 μg/ml, 50μl/well in 0.1 M sodium carbonate buffer, pH 9.6, 4° C. overnight). Nonspecific binding was blocked with 1% BSA in phosphate buffered saline (PBS, 1 hour, room temperature). After adding a 50-μl aliquot of ^35 S-labeled Acanthamoeba (5×10^6 cells/ml in PBS; 1 to 2 cpm/parasite, >95% trophozoites) to each well, the plates were incubated for 2 hours at room temperature. After rinsing the cells with PBS to remove unbound Acanthamoeba, 0.1 ml of 2% sodium dodecyl sulfate (SDS) was added to each well, and the radioactivity in aliquots of solubilized material was determined in a scintillation counter.
mannose binding protein (MBP) of Acanthamoeba, sequence (Q6J288 entry or part of it): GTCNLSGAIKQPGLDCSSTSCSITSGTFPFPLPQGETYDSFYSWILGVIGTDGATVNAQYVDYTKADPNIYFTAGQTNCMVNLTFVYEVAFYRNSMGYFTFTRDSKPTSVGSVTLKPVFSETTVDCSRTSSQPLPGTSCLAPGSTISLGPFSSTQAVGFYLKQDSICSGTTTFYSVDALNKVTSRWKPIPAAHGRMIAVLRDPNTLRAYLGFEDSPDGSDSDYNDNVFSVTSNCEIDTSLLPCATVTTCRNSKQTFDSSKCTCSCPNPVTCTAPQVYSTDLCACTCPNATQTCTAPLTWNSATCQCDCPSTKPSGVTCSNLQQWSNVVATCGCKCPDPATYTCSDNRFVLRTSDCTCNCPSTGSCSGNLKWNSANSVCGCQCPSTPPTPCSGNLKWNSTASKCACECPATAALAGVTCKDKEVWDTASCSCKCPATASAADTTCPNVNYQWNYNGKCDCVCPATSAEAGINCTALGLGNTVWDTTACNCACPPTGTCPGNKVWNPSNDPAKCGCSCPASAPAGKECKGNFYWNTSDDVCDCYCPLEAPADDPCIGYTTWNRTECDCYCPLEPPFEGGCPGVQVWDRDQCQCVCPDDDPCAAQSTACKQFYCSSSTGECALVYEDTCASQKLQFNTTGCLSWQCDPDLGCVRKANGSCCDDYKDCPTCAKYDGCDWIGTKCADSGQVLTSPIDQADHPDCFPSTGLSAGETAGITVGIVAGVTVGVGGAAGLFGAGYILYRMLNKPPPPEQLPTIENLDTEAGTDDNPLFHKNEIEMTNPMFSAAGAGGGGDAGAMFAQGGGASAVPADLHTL

The subject of assay [3] is Acanthamoeba. The experiment in a line: Acanthamoeba-induced CPE assay, primary cultures of corneal epithelium. It counts as cell-based. As to conditions: primary cultures as target cells. The procedure: In vitro cytopathic assays were performed using cell cultures of corneal epithelium as target cells. Primary cell cultures of rabbit corneal epithelium were prepared according to published protocols (M. M. Jumblatt, Invest. Opthalmol. Visual Sci. 24:1139-43, 1983) using rabbit eyes from Pel-Freez Biologicals (N. Panjwani et al., Invest. Opthalmol. Visual Sci. 31:689-695, 1990) (Rogers, AK). Generally, seventy-five eyes were processed at a time. Primary cultures have limited life span and can only be passaged 2 to 3 times without significant alteration in cell morphology.
as §1
as §2, with “The parasites (>95% trophozoites) were rinsed three times in a serum-free Eagle's minimum essential medium supplemented with 0.4% bovine serum albumin (SFB) and aliquots of the parasite suspension (0.2×10^5 to 1×10^6 parasites/ml SFB medium, 300 μl/well for 24-well plates and 500 μl/well for 6-well plates or 35-mm dishes) were added to wells of confluent epithelial cultures which had been rinsed and preincubated in SFB medium for 2 hours. The” for “The”
Primary cultures were less susceptible to amoeba-induced CPE, requiring 1×10^6 parasites/ml to completely destroy the monolayer within 24 hours. This parasite concentration was five times higher than that required to produce the same effect when immortalized cultures were used as target host cells.

Where [4] appears, read: Acanthamoeba, in Oryctolagus cuniculus, read-out: Inhibition of cytopathic effect (% inhib. at indicated conc.).

Each structure is given as a SMILES string. Entries after “also recorded” stand apart in the source; their conditions may differ. Like-named read-outs stand apart in the source and are kept apart here.

As for `CC(=O)N[C@H]1C(O)O[C@H](CO)[C@H](O)[C@@H]1O` (stereo partly drawn) [N-acetyl-D-galactosamine], the “Inhibition of amoeba-induced cytopathic effect” value in assay [1] (at 100 mM) is “did not inhibit”. Also, in assay [2], the “Inhibition of Acanthamoeba binding to Man-BSA” value is on record as “did not inhibit”.
Broadly, the inhibition is the drop in the measured response relative to a control, in per cent. As for `C[C@@H]1O[C@@H](O)[C@@H](O)[C@H](O)[C@@H]1O` [α-L-Fucose], the “Inhibition of amoeba-induced CPE” value is given as “not inhibitory” in assay [3] and “poor inhibitors; also recorded: weak inhibitor” in assay [1]. For the same compound, the inhibition at 100000 µM in assay [1] (Acanthamoeba, in Oryctolagus cuniculus, at 100 mM, read-out: Inhibition of cytopathic effect (% inhib. at indicated conc.)) was found to be 40%. In addition, the figures for the “Inhibition of amoebic binding to Man-BSA / affinity of amoebic lectin” value in assay [2] and in assay [2] (listed as α-fucose) were “poor inhibitors; also recorded: weak inhibitor” and “weak inhibitors”, respectively.
For `OC[C@H]1O[C@H](OC[C@H]2OC(O)[C@@H](O)[C@@H](O)[C@@H]2O)[C@@H](O)[C@@H](O)[C@@H]1O` (stereo partly drawn) [Man(α1-6)Man], the inhibition at 310 µM in assay [1] (setting [4]) was found to be 80%.
Consider `CC(=O)N[C@@H]1C(O)O[C@H](CO)[C@@H](O)[C@@H]1O` (stereo partly drawn) [N-acetyl-D-mannosamine], for which the “Inhibition of amoeba-induced cytopathic effect” value in assay [1] (at 100 mM) is reported as “did not inhibit”. In assay [1], the “Inhibition of amoeba-induced CPE” value is “did not inhibit”. For the same compound, in assay [2], the “Inhibition of Acanthamoeba binding to Man-BSA” value is “did not inhibit” and the “Inhibition of amoebic binding to Man-BSA / affinity of amoebic lectin” value is recorded as “did not inhibit”.
As for `OCC1OC(OC2C(O)C(CO)OC(OCC3OC(O)C(O)C(O)C3O)C2O)C(O)C(O)C1O` (stereo not drawn) [Man(α1-3)Man(α1-6)Man], the entries for the “Inhibition of amoeba-induced CPE” value in assay [3] and in assay [1] were “inhibited CPE” and “potent inhibitors”, respectively. Moreover, the inhibition at 310 µM in assay [1] (setting [4]) came to 100%. Further, the “Inhibition of amoebic binding to Man-BSA / affinity of amoebic lectin” value in assay [2] is reported as “potent inhibitors”.
Turning to `OC[C@H]1OC(O)[C@@H](O)[C@H](O)[C@@H]1O` (stereo partly drawn) [D-altrose], the “Inhibition of amoeba-induced cytopathic effect” value in assay [1] was “did not inhibit”. Besides, in assay [2], the “Inhibition of Acanthamoeba binding to Man-BSA” value is reported as “did not inhibit” and the “Inhibition of amoebic binding to Man-BSA / affinity of amoebic lectin” value is “not inhibitory”.
For the compound `OC[C@H]1O[C@H](O[C@H]2[C@H](O)[C@@H](CO)OC(O)[C@H]2O)[C@@H](O)[C@@H](O)[C@@H]1O` (stereo partly drawn) [Man(α1-3)Man], the inhibition at 310 µM in assay [1] (setting [4]) turned out to be 91%. For the same compound, in assay [2] (comparator named in the value), the “Relative inhibitory potency in binding to Man-BSA” value is given as “three times more potent than the corresponding α-1-6 disaccharide”.
As for `OC[C@H]1OC(O)[C@@H](O)[C@@H](O)[C@@H]1O` (stereo partly drawn) [D-mannose], the inhibition at 5000 µM in assay [1] (setting [4]) is 50%.
Regarding `O=P(O)(O)OC[C@H]1OC(O)[C@@H](O)[C@@H](O)[C@@H]1O` (stereo partly drawn) [D-mannose-6-phosphate], in assay [1] (setting [4]), the inhibition at 50000 µM is 30%. Further, the “Inhibition of amoeba-induced cytopathic effect” value in assay [1] (at 100 mM) is recorded as “did not inhibit”. Moreover, the “Inhibition of Acanthamoeba binding to Man-BSA” value in assay [2] is recorded as “did not inhibit; also recorded: No inhibition”.
With `OCC1OC(OC2C(O)C(CO)OC(OCC3OC(OC4C(O)C(CO)OC(OCC5OC(O)C(O)C(O)C5O)C4O)C(O)C(O)C3O)C2O)C(O)C(O)C1O` (stereo not drawn) [Man(α1-3)Man(α1-6)Man-(α1-3)Man(α1-6)Man], the “Inhibition of amoeba-induced CPE” value is “inhibited CPE” in assay [3] and “potent inhibitors” in assay [1]. Moreover, the “Inhibition of amoebic binding to Man-BSA / affinity of amoebic lectin” value in assay [2] was “potent inhibitors”.
On to `OC[C@H]1O[C@H](O)[C@@H](O)[C@@H](O)[C@H]1O` [α-D-talose], for which the “Inhibition of amoeba-induced cytopathic effect” value in assay [1] (at 100 mM) is given as “did not inhibit”. Further, in assay [2], the “Inhibition of Acanthamoeba binding to Man-BSA” value is “did not inhibit” and the “Inhibition of amoebic binding to Man-BSA / affinity of amoebic lectin” value is “not inhibitory”.
Take `OC[C@@H](O)[C@@H](O)[C@H](O)[C@H](O)CO` [D-mannitol]: the “Inhibition of amoeba-induced cytopathic effect” value in assay [1] (at 100 mM) is “did not inhibit”. Also, the “Inhibition of amoeba-induced CPE” value in assay [1] is recorded as “did not inhibit”. In assay [2], the “Inhibition of Acanthamoeba binding to Man-BSA” value was “did not inhibit” and the “Inhibition of amoebic binding to Man-BSA / affinity of amoebic lectin” value is “did not inhibit”.
Regarding `CO[C@H]1O[C@H](CO)[C@H](O)[C@H](O)[C@H]1O` [methyl-α-D-galactopyranoside], the “Inhibition of amoeba-induced CPE” value in assay [3] is on record as “did not inhibit CPE”. In addition, the “Inhibition of amoeba-induced cytopathic effect” value in assay [1] (at 100 mM) was “did not inhibit”. For the same compound, the “Inhibition of amoeba-induced CPE” value in assay [1] is on record as “did not inhibit”. For the same compound, in assay [2], the “Inhibition of Acanthamoeba binding to Man-BSA” value is recorded as “did not inhibit” and the “Inhibition of amoebic binding to Man-BSA / affinity of amoebic lectin” value is “did not inhibit”.
On to `CO[C@@H]1O[C@H](CO)[C@@H](O)[C@H](O)[C@H]1O` [methyl-β-D-glucopyranoside], for which the “Inhibition of amoeba-induced cytopathic effect” value in assay [1] (at 100 mM) is “did not inhibit”. In addition, the “Inhibition of Acanthamoeba binding to Man-BSA” value in assay [2] is recorded as “did not inhibit”.
Take `CO[C@@H]1O[C@H](CO)[C@H](O)[C@H](O)[C@H]1O` [methyl-β-D-galactopyranoside]: in assay [3], the “Inhibition of amoeba-induced CPE” value is reported as “did not inhibit CPE”. Besides, the “Inhibition of amoeba-induced cytopathic effect” value in assay [1] (at 100 mM) is given as “did not inhibit”. The “Inhibition of amoeba-induced CPE” value in assay [1] is “did not inhibit”. In addition, in assay [2], the “Inhibition of Acanthamoeba binding to Man-BSA” value is on record as “did not inhibit” and the “Inhibition of amoebic binding to Man-BSA / affinity of amoebic lectin” value is on record as “did not inhibit”.
With `CO[C@H]1O[C@H](CO)[C@@H](O)[C@H](O)[C@H]1O` [Methyl-α-D-glucopyranoside], the inhibition at 50000 µM in assay [1] (setting [4]) came out at 31%. Besides, the “Inhibition of amoeba-induced CPE” value in assay [1] is on record as “poor inhibitors”. Also, the “Inhibition of amoebic binding to Man-BSA / affinity of amoebic lectin” value in assay [2] is recorded as “poor inhibitors”. For the same compound, the inhibition at 100000 µM in assay [2] (read-out: Inhibition of binding, % at indicated conc.) is 40%.
As to `OC1OC[C@@H](O)[C@H](O)[C@@H]1O` (stereo partly drawn) [D-lyxose], the “Inhibition of amoeba-induced cytopathic effect” value in assay [1] (at 100 mM) is given as “did not inhibit”. In assay [2], the “Inhibition of Acanthamoeba binding to Man-BSA” value is recorded as “did not inhibit” and the “Inhibition of amoebic binding to Man-BSA / affinity of amoebic lectin” value was “lack of inhibitory activity; also recorded: no affinity”.
On to `OC[C@H]1OC(O)[C@H](O)[C@@H](O)[C@@H]1O` (some centres unmarked) [glucose], for which the “Inhibition of amoebic binding to Man-BSA / affinity of amoebic lectin” value in assay [2] is listed as “weak inhibitor”.
Take `C[C@@H]1OC(O)[C@H](O)[C@H](O)[C@H]1O` (stereo partly drawn) [L-rhamnose]: the “Inhibition of amoeba-induced cytopathic effect” value in assay [1] (at 100 mM) is on record as “did not inhibit”. The “Inhibition of Acanthamoeba binding to Man-BSA” value in assay [2] is on record as “did not inhibit”.
With `OC[C@@H]1OC(O)[C@H](O)[C@H](O)[C@H]1O` (stereo partly drawn) [L-mannose], the “Inhibition of amoeba-induced cytopathic effect” value in assay [1] is reported as “did not inhibit”. In addition, the “Inhibition of Acanthamoeba binding to Man-BSA” value in assay [2] is “did not inhibit”.
